Results published in patent publication EP0245669B1, “Pharmaceutical preparation for preventing damage to living cells by free radicals, or for increasing the efficacy of organic sulphur compounds, and process for increasing the life span of isolated organs” (Medopharm Arzneimittelwerk Dr. Zillich GmbH & Co., priority 1986, dated 1987).

Key:
weiblichen C3H Mäusen = experiment: Radiation protection: survival of mice after gamma irradiation (cobalt-60) following i.p. pretreatment; type: in vivo, Mäuse; conditions: Table II; for Ueberlebensrate nach Bestrahlung mit 9 Gy % / Ueberlebensrate nach Bestrahlung mit 9 Gy Anzahl: 10 min before 9 Gy; for Ueberlebensrate nach Bestrahlung mit 9 Gy Anzahl / Ueberlebensrate nach Bestrahlung mit 10 Gy Anzahl / Ueberlebensrate nach Bestrahlung mit 11 Gy Anzahl: surviving/irradiated mice; for Ueberlebensrate nach Bestrahlung mit 10 Gy % / Ueberlebensrate nach Bestrahlung mit 10 Gy Anzahl: 10 min before 10 Gy; for Ueberlebensrate nach Bestrahlung mit 11 Gy % / Ueberlebensrate nach Bestrahlung mit 11 Gy Anzahl: 30 min before 11 Gy
Description: In den nachfolgenden Beispielen wurde die synergistische Wirkung der durch die erfindungsgemässe Verwendung hergestellten pharmazeutischen Präparate mit organische Schwefelverbindungen enthaltenden Präparaten anhand des Strahlenschutzes getestet und es wurde auch die Strahlenschutzwirkung der Zinkionen enthaltenden Präparate mit bisher bekannten Strahlenschutzpräparaten an Mäusen getestet. Die Versuche wurden mit weiblichen C3H Mäusen (GL. Bomholtgard, Ry, Dänemark) durchgeführt, die 20 bis 22 g wogen. Die Mäuse wurden unter Bedingungen gehalten, wo sie so viel Standard-Nagetierfutter (Nafag Pellts) fressen und so viel Leitungswasser trinken können, wie sie wollten. Die Bestrahlung erfolgte mit Gammastrahlen aus einer Kobalt-60 Quelle. Es wurden unterschiedliche Bestrahlungen vorgenommen, und zwar mit 9 Gy, 10 Gy, 11 Gy, 12 Gy, 13 Gy und 14 Gy.
10 Minuten vor der Bestrahlung, 30 Minuten vor der Bestrahlung oder 120 Minuten vor der Bestrahlung wurde ein durch die erfindungsgemässe Verwendung hergestelltes synergistisch wirkendes pharmazeutisches Präparat, bzw. ein entsprechendes, Zinkionen enthaltendes Strahlenschutzpräparat oder ein aus dem Stand der Technik bekanntes Strahlenschutzpräparat zu Vergleichszwecken durch intraperitoneale Injektion verabreicht.
Bei der Gruppe der Mäuse zu Vergleichszwecken, die ohne Verabreichung eines Strahlenschutzpräparates bestrahlt wurden, erfolgte 10 Minuten vor der Bestrahlung die Verabreichung von destilliertem Wasser. Bei diesen unbehandelten Mäusen überlebten nur 50% der Tiere eine Bestrahlung von 8 Gy, d.h. der LD₅₀-Wert betrug 8 Gy.
Nach den Arbeitsweisen der vorangegangenen Beispiele 1 bis 4, wurden weitere Tests mit den genannten weiblichen Mäusen durchgeführt, und zwar unter Verwendung der angeführten Zinksalze. Die bei diesen Tests erzielten Ergebnisse sind in der nachfolgenden Tabelle I zusammengestellt. Für jede der angewandten Bestrahlungsstärken ist in der Rubrik "Anzahl" diejenige Anzahl der Mäuse angeführt, welche die Bestrahlung überlebten, geteilt durch die Gesamtzahl der Mäuse, welche bestrahlt wurden. Ein entsprechender Wert von 1/10 bedeutet also, dass von 10 bestrahlten Mäusen eine überlebt hatte. In der Spalte mit der Bezeichnung "Prozent", ist die Prozent-Ueberlebensrate angeführt. Bei einer überlebenden Maus pro 10 getesteten Mäusen beträgt diese Ueberlebensrate 10 %.
Zu Vergleichszwecken sind in der nachfolgenden Tabelle III die Ueberlebensraten von Mäusen zusammengestellt, die nach dem in Beispiel 5 beschriebenen Verfahren einer Vorbehandlung mit einem bekannten schwefelhaltigen Strahlenschutzmittel unterworfen worden waren. Orientierende Vorversuche hatten gezeigt, dass diese Strahlenschutzmittel bereits ihre Wirkung verloren hatten, wenn sie zwei Stunden vor der Einwirkung der Bestrahlung verabreicht worden waren. Die Bestrahlung wurde, wie aus der Tabelle ersichtlich ist, zwei Minuten nach der Verabreichung, in den meisten Fällen 10 Minuten nach der Verabreichung, aber auch 30 Minuten, bzw. 120 Minuten nach der Verabreichung durchgeführt. Die Werte deuten darauf hin, dass 30 Minuten nach der Verabreichung die Schutzwirkung schon wieder deutlich nachgelassen hat. Für jede Bestrahlungsstärke ist wiederum die Anzahl der Tiere angeführt, die nach 30 Tagen überlebt haben, geteilt durch die Gesamtzahl der Tiere, die behandelt und bestrahlt worden waren.
Anhand dieses Beispiels soll die synergistische Wirkung von Zinkionen und Schwefelverbindungen bezüglich eines Strahlenschutzes erläutert werden. Es wurde wieder in der gleichen Weise gearbeitet, wie in den vorangegangenen Beispielen 1 bis 3, bzw. 5, und es wurde auch die gleiche Art an weiblichen Mäusen getestet. Die Verabreichung der Zinkionen enthaltenden Lösung und der Lösung der Schwefelverbindung erfolgte entweder nacheinander oder gleichzeitig durch intraperitoneale Injektion.
In allen Fällen wurde die Ueberlebensrate 30 Tage nach der Einwirkung der Bestrahlung bestimmt.

Mäuse = experiment: Toxicity of the zinc salts used as radiation protection agents (LD50); type: in vivo
Protocol: In diesem Beispiel wurde die Toxizität der als Strahlenschutzmittel eingesetzten Zinksalze getestet.
Der LD₅₀-Wert betrug für das Zinkaspartat 55 mg/kg Körpergewicht, für das Zinkchlorid 24 mg/kg Körpergewicht und für das Zinksulfat 45 mg/kg Körpergewicht.

Zinksulfat
Ueberlebensrate nach Bestrahlung mit 9 Gy % (weiblichen C3H Mäusen; Zinksulfat: 15 mg/kg i.p.): 0%
Ueberlebensrate nach Bestrahlung mit 9 Gy Anzahl (weiblichen C3H Mäusen; Zinksulfat: 15 mg/kg i.p.): 1/10
Ueberlebensrate nach Bestrahlung mit 10 Gy % (weiblichen C3H Mäusen; Zinksulfat: 15 mg/kg i.p.): 22%
Ueberlebensrate nach Bestrahlung mit 10 Gy Anzahl (weiblichen C3H Mäusen; Zinksulfat: 15 mg/kg i.p.): 2/9
Ueberlebensrate nach Bestrahlung mit 11 Gy % (weiblichen C3H Mäusen; Zinksulfat: 15 mg/kg i.p.): 0%
Ueberlebensrate nach Bestrahlung mit 11 Gy Anzahl (weiblichen C3H Mäusen; Zinksulfat: 15 mg/kg i.p.): 0/20
Ueberlebensrate nach Bestrahlung mit 9 Gy Anzahl (weiblichen C3H Mäusen; Zinksulfat: 30 mg/kg i.p.): 0/10
Ueberlebensrate nach Bestrahlung mit 10 Gy % (weiblichen C3H Mäusen; Zinksulfat: 30 mg/kg i.p.): 33%
Ueberlebensrate nach Bestrahlung mit 10 Gy Anzahl (weiblichen C3H Mäusen; Zinksulfat: 30 mg/kg i.p.): 3/9
Ueberlebensrate nach Bestrahlung mit 11 Gy % (weiblichen C3H Mäusen; Zinksulfat: 30 mg/kg i.p.): 5%
Ueberlebensrate nach Bestrahlung mit 11 Gy Anzahl (weiblichen C3H Mäusen; Zinksulfat: 30 mg/kg i.p.): 1/20
Ueberlebensrate nach Bestrahlung mit 9 Gy % (weiblichen C3H Mäusen; Zinksulfat: 22,5 mg/kg i.p.): 80%
Ueberlebensrate nach Bestrahlung mit 9 Gy Anzahl (weiblichen C3H Mäusen; Zinksulfat: 22,5 mg/kg i.p.): 8/10
Ueberlebensrate nach Bestrahlung mit 10 Gy % (weiblichen C3H Mäusen; Zinksulfat: 22,5 mg/kg i.p.): 33%
Ueberlebensrate nach Bestrahlung mit 10 Gy Anzahl (weiblichen C3H Mäusen; Zinksulfat: 22,5 mg/kg i.p.): 3/9
Ueberlebensrate nach Bestrahlung mit 11 Gy % (weiblichen C3H Mäusen; Zinksulfat: 22,5 mg/kg i.p.): 0%
Ueberlebensrate nach Bestrahlung mit 11 Gy Anzahl (weiblichen C3H Mäusen; Zinksulfat: 22,5 mg/kg i.p.): 0/20
LD₅₀-Wert (Mäuse): 45 mg/kg Körpergewicht
